Legend:
[1] = Treatment-emergent adverse events and tozadenant plasma Cmax by dose in patients (Table 19); type: in vivo, human; conditions: for Cmax at 6 week / Cmax: human, oral; for Cmax at 6 week: maximum plasma concentration in group of 63-75 patients, time since last dose unknown; for Cmax: plasma, read-out: Cmax (ng/mL) at ~5 hr postdose at Day 1
Source text: Table 19 summarizes the dose response of AEs observed in patients taking tozadenant alongside the plasma Cmax. A clear trend of increasing AEs and discontinuation of therapy is seen with doses that result in higher tozadenant Cmax. A controlled-release formulation can be used to achieve the drug levels (Css) that are therapeutically effective while avoiding the high plasma Cmax and AEs associated with high doses of an IR formulation.

[2] = Clinical study of immediate-release tozadenant: treatment-emergent adverse events, Cmax and Css (Table 18); type: in vivo, human; conditions: for Total AEs/subject / concentration at 14 day / Cmax: immediate-release formulation; for Total Number of AEs: immediate-release formulation (N = 6); for concentration at 14 day / Cmax: human, plasma; for Cmax: read-out: Cmax (ng/mL) at Day 14
Procedure: Advantages of controlled-release formulations compared to immediate-release formulations include: lower incidence of adverse events; improved tolerability; reduced frequency of dosing; and improved compliance due to reduced frequency of dosing.
An example of an efficacious dose of tozadenant is 120 mg of an immediate-release formulation administered twice a day (BID). […] Thus, a CR formulation could be designed to achieve an efficacious Css lower than the plasma levels (Cmax) that result in AEs. An efficacious CR formulation would preferably result in a Css in the range of 0.5-3.0 μg/mL.

[3] = Physical characterization of tozadenant API; type: physicochemical
Source text: The active pharmaceutical ingredient (API) was very fine, with ˜60% fines. […] The observed loss upon drying indicated a low amount of water and volatile matter in API.

Bulk density [3]: 0.1948 g/mL
Compressibility index [3]: 35.065
Fines Portion (# 60 pass portion) [3]: 60.00%
Granular Portion (# 60 Retain portion) [3]: 40.00%
Hausner ratio [3]: 1.5406
Tapped density [3]: 0.3000 g/mL
Particle size distribution (% Retention) ([3]; ASTM # 20 mesh (841μ)): 0.00%
Particle size distribution (% Retention) ([3]; ASTM # 40 mesh (420μ)): 7.00%
Particle size distribution (% Retention) ([3]; ASTM # 60 mesh (250μ)): 33.00%
Particle size distribution (% Retention) ([3]; ASTM # 80 mesh (177μ)): 18.00%
Particle size distribution (% Retention) ([3]; ASTM # 100 mesh (149μ)): 16.00%
Particle size distribution (% Retention) ([3]; ASTM # 200 mesh (75μ)): 21.00%
Particle size distribution (% Retention) ([3]; Pan): 5.00%
Loss on drying ([3]; at 105° C. for 5 minutes): 0.400 % w/w
SMILES: COc1ccc(N2CCOCC2)c2sc(NC(=O)N3CCC(C)(O)CC3)nc12 [tozadenant, 4-hydroxy-4-methyl-piperidine-1-carboxylic acid (4-methoxy-7-morpholin-4-yl-benzothiazol-2-yl)-amide]
Patients discontinuing due to AEs, % ([1]; 60 mg BID): 8%
Patients with no AE, % ([1]; 60 mg BID): 28%
Patients with ≥ 1 AE related to study drug, % ([1]; 60 mg BID (N = 85)): 44%
Patients discontinuing due to AEs, % ([1]; 120 mg BID): 12%
Patients with no AE, % ([1]; 120 mg BID): 26%
Patients with ≥ 1 AE related to study drug, % ([1]; 120 mg BID (N = 82)): 55%
Patients discontinuing due to AEs, % ([1]; 180 mg BID): 12%
Patients with no AE, % ([1]; 180 mg BID): 21%
Patients with ≥ 1 AE related to study drug, % ([1]; 180 mg BID (N = 85)): 55%
Patients discontinuing due to AEs, % ([1]; 240 mg BID): 20%
Patients with no AE, % ([1]; 240 mg BID): 18%
Patients with ≥ 1 AE related to study drug, % ([1]; 240 mg BID (N = 84)): 63%
Cmax at 6 week ([1]; 60 mg BID): 2570 ng/mL
Cmax ([1]; 60 mg BID): 424 ng/mL
Cmax at 6 week ([1]; 120 mg BID): 3910 ng/mL
Cmax ([1]; 120 mg BID): 680 ng/mL
Cmax at 6 week ([1]; 180 mg BID): 5460 ng/mL
Cmax ([1]; 180 mg BID): 999 ng/mL
Cmax at 6 week ([1]; 240 mg BID): 6630 ng/mL
Cmax ([1]; 240 mg BID): 1150 ng/mL
Css ([2]; 120 mg of an immediate-release formulation administered twice a day (BID)): about 2.4 μg/mL
Total AEs/subject ([2]; 120 BID): 0.7
Total Number of AEs ([2]; 120 BID): 4
Total AEs/subject ([2]; 240 BID): 4.0
Total Number of AEs ([2]; 240 BID): 24
Total AEs/subject ([2]; 240 QD): 2.7
Total Number of AEs ([2]; 240 QD): 16
Total AEs/subject ([2]; 480 QD): 5.0
Total Number of AEs ([2]; 480 QD): 30
concentration at 14 day ([2]; 120 mg, 120 BID): 2360 ng/mL
Cmax ([2]; 120 mg, 120 BID): 2970 ng/mL
concentration at 14 day ([2]; 240 mg, 240 BID): 4810 ng/mL
Cmax ([2]; 240 mg, 240 BID): 6160 ng/mL
concentration at 14 day ([2]; 240 mg, 240 QD): 2080 ng/mL
Cmax ([2]; 240 mg, 240 QD): 3440 ng/mL
concentration at 14 day ([2]; 480 mg, 480 QD): 3500 ng/mL
Cmax ([2]; 480 mg, 480 QD): 5120 ng/mL
